From patent publication US11390900B2, “Antimicrobial cartridges and processes for multiplexed antimicrobial susceptibility testing” (priority 2018, dated 2022)
Like-named read-outs stand apart in the source and are kept apart here.

Columns and labels:
[1] = test system: E. faecalis 29212; settings: cited from earlier work; for CLSI-Defined QC Range: MIC range; for CLSI-Defined QC Range, screen result: E. faecalis 29212, no growth @ 100 48 hrs (streptomycin), @ 500 24 hrs (gentamicin)
[2] = test system: patient sample microbes; settings: antimicrobial panel 1, MIC range; cited from earlier work
[3] = test system: patient sample microbes; assay: AST MIC results for antimicrobial panel 1 (384-well panel from Master Plate vs 96-well panel); type: cell-based; settings: for MICs obtained from panel made from Master Plate: antimicrobial panel 1, 384 well patient cartridge; for MICs obtained from 96-well Antibiotic Panel: antimicrobial panel 1, standard 96 well AST assay plate
From the text: (§1) An assay setup comprises preparation of patient (target) cartridge by dispensing antimicrobials were from the master cartridge or intermediate serial dilution cartridges into one or more 384 reservoir patient cartridge, each antimicrobial in about 7 serial dilutions in triplicate, and covering the dynamic range of each antimicrobial that is known to be effective and therefore should be reported. The dilution range included the expected minimum inhibitory concentration (MIC) for each antimicrobial. But most importantly, dilution ranges, that is, antimicrobial concentrations beyond the range known to be effective are included in the patient cartridge as per the present invention.
(§2) The remaining reservoirs of the 384 well patient cartridge are utilized for setting up test controls: a no-antimicrobial control (negative control) was included for each antimicrobial compound; and a positive control was included for each antimicrobial set, where a microorganism that is not susceptible to the antimicrobial was added to the well. Each control set was also dispensed at least in duplicate per 384 well cartridge. Additional test controls may be included as deemed necessary by one of skill in the art. Equal amount of a patient sample was dispensed to each of the wells in the cartridge, except in the wells designated for no-sample control, if included. The patient cartridge was ready for determination of susceptibility of microbes from the patient sample to the twelve antimicrobials at the range of concentrations applied, simultaneously. Multiple such plates can be set up in parallel for testing samples from multiple patients, each patient sample per plate. An AST assay was performed on the prepared patient cartridges.
(§3) First, three master plates are loaded by the user onto chilled plate holders (set to 4° C.). These consist of one Broad Spectrum, one Gram-Positive and one Gram-Negative antibiotic plate. Next the bulk reagents and pipette tips are loaded on tube rack. Master and bulk reagent pipette tips and sample dilution tray are reloaded every 12 samples. For every set of tests, up to four Patient Samples in tubes and up to four 384-well Target Plates (Patient plate) are loaded.
(§4) Antibiotics are transferred from Broad Spectrum Master Plate to Target Plate(s). Antibiotics are “stamped” according to FIG. 10A-B. The inoculator tips should be placed back in the same position of the Broad Spectrum Tip Box for use on subsequent target plates, but should only be used for same antibiotics to avoid cross contamination.
(§5) Antimicrobials are transferred from Gram-Positive OR Gram-Negative Master Plate to Target Plate(s) and the antibiotics are “stamped” according to FIG. 11A-B. The inoculator should place tips back in the same position of the correct tip box for use on subsequent target plates. Good care is taken such that any cross contamination is prevented.
(§6) Using new tips from the Sample Tip Box, 50 μL of diluted patient sample are transferred into Target Plate according to Table Four, this is done with a “jet dispense” to avoid cross contamination. After the Patient Sample has been transferred to each well on the Target Plate, the tips should be disposed of to avoid cross contamination. The above steps are repeated for each additional Patient Sample and Target Plate.
(§7) Shown in Table 6 and Table 7, MIC results for antimicrobial panels 1 and 2 respectively using a master cartridge format and a 384 well patient cartridge (column 3) agrees reliably with that run by standard 96 well AST assay plate (right hand column).

[4] = test system: patient sample microbes; assay: AST MIC results for antimicrobial panel 2 (384-well panel from Master Plate vs 96-well panel); type: cell-based; settings: for MICs obtained from panel made from Master Plate: antimicrobial panel 2, 384 well patient cartridge; for MICs obtained from 96-well Antibiotic Panel: antimicrobial panel 2, standard 96 well AST assay plate
From the text: as §1, §2, §3, §4, §5, §6, §7

[5] = test system: E. coli 25922; settings: MIC range, E. coli 25922, Gram negative panel; cited from earlier work
[6] = test system: patient sample microbes; settings: antimicrobial panel 2, MIC range; cited from earlier work
[7] = test system: K. pneumoniae 700603; settings: MIC range, K. pneumoniae 700603, Gram negative panel; cited from earlier work
[8] = test system: E. faecalis 51299; settings: growth @ 100 (streptomycin), @ 500 (gentamicin); cited from earlier work
[9] = test system: S. aureus BAA-1708; settings: growth @ 256; cited from earlier work
[10] = test system: S. aureus 29213; settings: cited from earlier work; for CLSI-Defined QC Range, screen result: S. aureus 29213, no growth @ 0.5/4 (Cli/Ery), @ 4 (cefoxitin), @ 256 (mupirocin)
[11] = test system: S. aureus 43300; settings: growth @ 4; cited from earlier work
[12] = E. faecalis 29212, Gram positive panel

Compound | CLSI-Defined QC Range [1, 12] [µg/mL] | Quality Control Range [2] | MICs obtained from panel made from Master Plate [3] [µg/mL] | MICs obtained from 96-well Antibiotic Panel [3] [µg/mL] | MICs obtained from panel made from Master Plate [4] [µg/mL] | MICs obtained from 96-well Antibiotic Panel [4] [µg/mL] | CLSI-Defined QC Range [5] [µg/mL] | Quality Control Range [6] | CLSI-Defined QC Range [7] [µg/mL] | CLSI-Defined QC Range, screen result [1] | CLSI-Defined QC Range, screen result [8] | CLSI-Defined QC Range, screen result [10] | further results
CC1(C)S[C@@H]2[C@H](NC(=O)[C@H](N)c3ccccc3)C(=O)N2[C@H]1C(=O)O [Ampicillin] | 0.5 to 2 | 2-8 | 4 | 8 | 1 | 1 | 2 to 8 | 0.5-2 | >128 |  |  |  | 
Gentamicin | 4 to 16 |  |  |  |  |  |  |  |  | Negative (No growth | Positive (Growth @ |  | CLSI-Defined QC Range ([1]; E. faecalis 29212, Gram negative panel): 4 to 16 µg/mL
C/C(=C\C(=O)OCCCCCCCCC(=O)O)C[C@@H]1OC[C@H](C[C@@H]2O[C@H]2[C@@H](C)[C@H](C)O)[C@@H](O)[C@H]1O [Mupirocin High Level Screen, Mupirocin] |  |  |  |  |  |  |  |  |  |  |  | Negative (No growth | CLSI-Defined QC Range, screen result [9]: Positive (Growth @
[H]/N=C(/N)N[C@H]1[C@H](O)[C@@H](O)[C@H](O[C@@H]2O[C@@H](C)[C@](O)(C=O)[C@H]2O[C@@H]2O[C@@H](CO)[C@H](O)[C@@H](O)[C@@H]2NC)[C@@H](N/C(N)=N\[H])[C@@H]1O [Streptomycin High Level Screen, Streptomycin] |  |  |  |  |  |  |  |  |  | Negative (No growth | Positive (Growth @ |  | 
CO[C@@]1(NC(=O)Cc2cccs2)C(=O)N2C(C(=O)O)=C(COC(N)=O)CS[C@@H]21 [Cefoxitin] |  |  |  |  |  |  | 2 to 8 |  |  |  |  | Negative (No growth | CLSI-Defined QC Range, screen result [11]: Positive (Growth @
CC(C)(O/N=C(\C(=O)N[C@@H]1C(=O)N2C(C(=O)[O-])=C(C[n+]3ccccc3)CS[C@H]12)c1csc(N)n1)C(=O)O [Ceftazidime] |  | 0.06-0.5 | ≤ 1 | 0.25 | 4 | 8 |  | 4-16 | 16 to 64 |  |  |  | CLSI-Defined QC Range ([10]; MIC range, S. aureus 29213, Gram negative panel): 4 to 16 µg/mL
